Experiments:
[1] = target: TANK binding kinase (TBK1) (Homo sapiens (Human), UniProt Q9UHD2); assay: TBK1 enzyme assay (384-well Flashplate kinase assay); assay type: biochemical; conditions: 10 μM ATP, 120 Min at 30° C.
Experimental: Test for the Inhibition of TBK1
The kinase assay is performed as 384-well Flashplate assay (for e.g. Topcount measurement. 0.6 nM TANK binding kinase (TBK1), 800 nM biotinylated MELK-derived peptide (Biotin-Ah-Ah-[…]) SEQ ID NO: 2 and 10 μM ATP (spiked with 0.25 μCi ^33P-ATP/well) are incubated in a total volume of 50 μl (10 mM MOPS, 10 mM Mg-acetat, 0.1 mM EGTA, 1 mM DTT, 0.02% Brij35, 0.1% BSA, pH 7.5) with or without test compound for 120 Min at 30° C. The reaction is stopped with 25 μl 200 mM EDTA. After 30 Min at room temperature the liquid is removed and each well washed thrice with 100 μl 0.9% sodium chloride solution. Nonspecific reaction is determined in presence of 100 nM Staurosporine. Radioactivity is measured in a Topcount (PerkinElmer). Results (e.g. IC50-values) are calculated with program tools provided by the IT-department (e.g. AssayExplorer, Symyx).

IKKε = IKKε (Homo sapiens (Human), UniProt Q14164); assay: IKKε kinase assay (384-well Flashplate); assay type: biochemical; conditions: 10 μM ATP, 2 hours at 30° C.; read-out: IKKε enzyme assay IC50
IKKε, sequence (Q14164 whole entry): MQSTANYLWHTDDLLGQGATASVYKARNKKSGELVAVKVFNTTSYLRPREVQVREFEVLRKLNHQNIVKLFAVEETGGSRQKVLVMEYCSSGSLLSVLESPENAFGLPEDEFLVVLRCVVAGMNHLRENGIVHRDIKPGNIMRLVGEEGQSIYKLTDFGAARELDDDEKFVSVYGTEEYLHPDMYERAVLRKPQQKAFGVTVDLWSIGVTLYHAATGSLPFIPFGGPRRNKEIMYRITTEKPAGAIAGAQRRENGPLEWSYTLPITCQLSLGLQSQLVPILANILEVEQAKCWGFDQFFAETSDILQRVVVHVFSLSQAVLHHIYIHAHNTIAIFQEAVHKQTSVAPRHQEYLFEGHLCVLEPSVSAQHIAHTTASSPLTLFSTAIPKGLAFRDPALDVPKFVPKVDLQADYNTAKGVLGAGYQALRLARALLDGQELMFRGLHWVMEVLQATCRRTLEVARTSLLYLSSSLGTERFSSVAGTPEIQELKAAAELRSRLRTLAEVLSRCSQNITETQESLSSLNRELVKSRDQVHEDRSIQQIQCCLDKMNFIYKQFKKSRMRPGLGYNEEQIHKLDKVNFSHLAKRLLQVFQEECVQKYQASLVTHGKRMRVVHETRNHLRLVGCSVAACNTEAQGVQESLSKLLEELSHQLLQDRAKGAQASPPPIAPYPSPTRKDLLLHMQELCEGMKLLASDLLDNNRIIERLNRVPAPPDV
Experimental: Test for the Inhibition of IKKε
IKKε—Kinase Assay (IKKepsilon)
The kinase assay is performed either as 384-well Flashplate assay (for e.g. Topcount measurement). […] The reaction is stopped with 25 μl 200 mM EDTA. After 30 Min at room temperature the liquid is removed and each well washed thrice with 100 μl 0.9% sodium chloride solution. […] Radioactivity is measured with Topcount (PerkinElmer). Results (e.g. IC50-values) are calculated with program tools provided by the IT-department (e.g. AssayExplorer, Symyx).

TANK binding kinase (TBK1), sequence (Q9UHD2 whole entry): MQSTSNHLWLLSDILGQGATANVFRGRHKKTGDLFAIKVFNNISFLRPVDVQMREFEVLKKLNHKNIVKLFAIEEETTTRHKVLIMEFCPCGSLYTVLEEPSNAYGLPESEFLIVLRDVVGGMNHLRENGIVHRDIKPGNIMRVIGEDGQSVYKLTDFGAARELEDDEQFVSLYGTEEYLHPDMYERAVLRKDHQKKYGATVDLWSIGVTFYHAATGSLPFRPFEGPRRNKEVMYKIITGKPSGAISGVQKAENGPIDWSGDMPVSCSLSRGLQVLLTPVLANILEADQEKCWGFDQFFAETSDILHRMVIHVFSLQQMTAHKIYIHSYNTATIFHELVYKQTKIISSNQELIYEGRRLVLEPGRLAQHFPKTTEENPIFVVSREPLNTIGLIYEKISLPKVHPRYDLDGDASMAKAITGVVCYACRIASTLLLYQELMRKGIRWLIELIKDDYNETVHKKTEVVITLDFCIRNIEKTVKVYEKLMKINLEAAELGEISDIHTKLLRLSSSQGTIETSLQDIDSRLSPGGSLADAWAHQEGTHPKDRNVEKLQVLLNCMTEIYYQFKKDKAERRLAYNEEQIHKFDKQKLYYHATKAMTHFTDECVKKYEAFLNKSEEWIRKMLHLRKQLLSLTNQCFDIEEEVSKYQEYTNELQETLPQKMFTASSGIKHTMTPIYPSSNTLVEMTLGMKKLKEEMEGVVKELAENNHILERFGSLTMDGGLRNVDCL

Row | Compound | IC50 [1] [nM] | IC50 (IKKε) [nM]
1 | NC(=O)c1nc(-c2ccncc2)sc1NC(=O)c1ccc(CN2CCNCC2)cc1 [Compound A24, 5-(4-piperazin-1-ylmethyl-benzoylamino)-2-pyridin-4-yl-thiazole-4-carboxylic acid amide] | 95 | 260
2 | NC(=O)c1nc(-c2ccncc2)sc1NC(=O)c1ccsc1 [Compound A65, 2-pyridin-4-yl-5-[(3-thienylcarbonyl)amino]-1,3-thiazole-4-carboxamide] | 200 | 480
3 | Cc1cc(-c2nc(C(N)=O)c(NC(=O)c3ccc(CN4CCN(C)CC4)cc3)s2)ccn1 [Compound A7, 5-[4-(4-methyl-piperazin-1-ylmethyl)-benzoylamino]-2-(2-methyl-pyridin-4-yl)-thiazole-4-carboxylic acid amide] | 410 | 390
4 | CN1CCN(Cc2ccc(C(=O)Nc3sc(-c4ccnc(C#N)c4)nc3C(N)=O)cc2)CC1 [Compound A9, 2-(2-cyano-pyridin-4-yl)-5-[4-(4-methyl-piperazin-1-ylmethyl)-benzoylamino]-thiazole-4-carboxylic acid amide] | 2000 | 740
5 | CN1CCN(Cc2ccc(C(=O)Nc3sc(-c4ccncc4Cl)nc3C(N)=O)cc2)CC1 [Compound A20, 2-(3-chloro-pyridin-4-yl)-5-[4-(4-methyl-piperazin-1-ylmethyl)-benzoylamino]-thiazole-4-carboxylic acid amide] | 640 | 630
6 | NC(=O)c1nc(-c2ccncc2)sc1NC(=O)c1cc[nH]n1 [Compound A63, 5-[(1H-pyrazol-3-ylcarbonyl)amino]-2-pyridin-4-yl-1,3-thiazole-4-carboxamide] | 2700 | 7300
7 | Cc1cnccc1-c1nc(C(N)=O)c(NC(=O)c2ccc(CN3CCN(C)CC3)cc2)s1 [Compound A22, 2-(3-methyl-pyridin-4-yl)-5-[4-(4-methyl-piperazin-1-ylmethyl)-benzoylamino]-thiazole-4-carboxylic acid amide] | 350 | 300
8 | CN1CCN(Cc2ccc(C(=O)Nc3sc(-c4ccncc4F)nc3C(N)=O)cc2)CC1 [Compound A19, 2-(3-fluoro-pyridin-4-yl)-5-[4-(4-methyl-piperazin-1-ylmethyl)-benzoylamino]-thiazole-4-carboxylic acid amide] | 370 | 280
9 | COc1cnccc1-c1nc(C(N)=O)c(NC(=O)c2ccc(CN3CCN(C)CC3)cc2)s1 [Compound A21, 2-(3-methoxy-pyridin-4-yl)-5-[4-(4-methyl-piperazin-1-ylmethyl)-benzoylamino]-thiazole-4-carboxylic acid amide] | 46 | 14
10 | CN1CCN(Cc2ccc(C(=O)Nc3sc(-c4ccnc(F)c4)nc3C(N)=O)cc2)CC1 [Compound A6, 2-(2-fluoro-pyridin-4-yl)-5-[4-(4-methyl-piperazin-1-ylmethyl)-benzoylamino]-thiazole-4-carboxylic acid amide] | 630 | 540
11 | Cc1ccc(C(=O)Nc2sc(-c3ccncc3)nc2C(N)=O)cc1 [Compound A55, 5-(4-methyl-benzoylamino)-2-pyridin-4-yl-thiazole-4-carboxylic acid amide] | 10000 | 5300
12 | CN1CCN(Cc2ccc(C(=O)Nc3sc(-c4ccncc4C(F)(F)F)nc3C(N)=O)cc2)CC1 [Compound A17, 5-[4-(4-methyl-piperazin-1-ylmethyl)-benzoylamino]-2-(3-trifluoromethyl-pyridin-4-yl)-thiazole-4-carboxylic acid amide] | 1400 | 140
13 | NC(=O)c1nc(-c2ccncc2)sc1NC(=O)c1ccc(N2CCOCC2)nc1 [Compound A43, N-(4-carbamoyl-2-pyridin-4-yl-thiazol-5-yl)-6-morpholin-4-yl-nicotinamide] | 7300 | 2000

Source: patent publication US9249114B2, “Thiazole derivatives” (Merck Patent GmbH, priority 2011, dated 2016)
